Laboratory results as given in PubChem BioAssay (NCI).
Values joined by “and” are separate entries in the source; they are usually repeats but may differ in a detail not shown here. Equal entries are not always repeated.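 All cell lines were grown in 96-well plates and treated with compound for 48 hours. The concentration for 50% growth inhibition is given as GI50. The concentration for full growth arrest is given as TGI.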

Tests used:
Experiment in all cases: NCI tumour cell line growth inhibition, 48 h
HCT-15 colon = tested on: HCT-15 colon
NCI/ADR-RES ovarian = tested on: NCI/ADR-RES ovarian
OVCAR-4 ovarian = tested on: OVCAR-4 ovarian
T-47D breast = tested on: T-47D breast
HCC-2998 colon = tested on: HCC-2998 colon
SNB-19 CNS = tested on: SNB-19 CNS
KM12 colon = tested on: KM12 colon
SW-620 colon = tested on: SW-620 colon
SK-OV-3 ovarian = tested on: SK-OV-3 ovarian
786-0 renal = tested on: 786-0 renal
CAKI-1 renal = tested on: CAKI-1 renal
HS 578T breast = tested on: HS 578T breast
MOLT-4 leukemia = tested on: MOLT-4 leukemia
RPMI-8226 leukemia = tested on: RPMI-8226 leukemia
IGROV1 ovarian = tested on: IGROV1 ovarian
OVCAR-5 ovarian = tested on: OVCAR-5 ovarian
DU-145 prostate = tested on: DU-145 prostate
OVCAR-8 ovarian = tested on: OVCAR-8 ovarian
UACC-257 melanoma = tested on: UACC-257 melanoma
MALME-3M melanoma = tested on: MALME-3M melanoma
SN12C renal = tested on: SN12C renal
COLO 205 colon = tested on: COLO 205 colon
PC-3 prostate = tested on: PC-3 prostate
LOX IMVI melanoma = tested on: LOX IMVI melanoma
OVCAR-3 ovarian = tested on: OVCAR-3 ovarian
RXF 393 renal = tested on: RXF 393 renal
UO-31 renal = tested on: UO-31 renal
HOP-92 NSCLC = tested on: HOP-92 NSCLC
A498 renal = tested on: A498 renal
A549 NSCLC = tested on: A549 NSCLC
NCI-H226 lung = tested on: NCI-H226 lung
HOP-62 NSCLC = tested on: HOP-62 NSCLC
TK-10 renal = tested on: TK-10 renal
EKVX NSCLC = tested on: EKVX NSCLC
CCRF-CEM leukemia = tested on: CCRF-CEM leukemia
M14 melanoma = tested on: M14 melanoma
SNB-75 CNS = tested on: SNB-75 CNS
U251 CNS = tested on: U251 CNS
SR leukemia = tested on: SR leukemia
MCF7 breast = tested on: MCF7 breast
K-562 leukemia = tested on: K-562 leukemia
NCI-H460 lung = tested on: NCI-H460 lung
SK-MEL-5 melanoma = tested on: SK-MEL-5 melanoma
BT-549 breast = tested on: BT-549 breast
HL-60(TB) leukemia = tested on: HL-60(TB) leukemia
NCI-H522 lung = tested on: NCI-H522 lung
SF-539 CNS = tested on: SF-539 CNS
SF-268 CNS = tested on: SF-268 CNS
UACC-62 melanoma = tested on: UACC-62 melanoma
SK-MEL-2 melanoma = tested on: SK-MEL-2 melanoma
NCI-H23 lung = tested on: NCI-H23 lung
HCT-116 colon = tested on: HCT-116 colon
MDA-MB-435 = tested on: MDA-MB-435
SF-295 CNS = tested on: SF-295 CNS
HT29 colon = tested on: HT29 colon
MDA-MB-231 breast = tested on: MDA-MB-231 breast
ACHN renal = tested on: ACHN renal
SK-MEL-28 melanoma = tested on: SK-MEL-28 melanoma

Compound: CN1CCN(Cc2ccc(NC(=O)c3cncc(C#Cc4cnc5ccc(NC6CCOCC6)nn45)c3)cc2C(F)(F)F)CC1
- GI50 (HCT-15 colon): 324 nM and 205 nM
- TGI (HCT-15 colon): 5100 nM and 667 nM
- GI50 (NCI/ADR-RES ovarian): 2640 nM and 1670 nM
- TGI (NCI/ADR-RES ovarian): 10900 nM and 4620 nM
- GI50 (OVCAR-4 ovarian): 157 nM and 102 nM
- TGI (OVCAR-4 ovarian): 5950 nM and 733 nM
- GI50 (T-47D breast): 165 nM and 167 nM
- TGI (T-47D breast): 1480 nM and 973 nM
- GI50 (HCC-2998 colon): 226 nM and 189 nM
- TGI (HCC-2998 colon): 2460 nM and 519 nM
- GI50 (SNB-19 CNS): 137 nM and 174 nM
- TGI (SNB-19 CNS): 4370 nM and 882 nM
- GI50 (KM12 colon): 5 nM
- TGI (KM12 colon): 667 nM and 389 nM
- GI50 (SW-620 colon): 76.6 nM and 21.3 nM
- TGI (SW-620 colon): 1640 nM and 167 nM
- GI50 (SK-OV-3 ovarian): 116 nM
- TGI (SK-OV-3 ovarian): 439 nM
- GI50 (786-0 renal): 202 nM and 90 nM
- TGI (786-0 renal): 742 nM and 355 nM
- GI50 (CAKI-1 renal): 98.7 nM and 39.5 nM
- GI50 (HS 578T breast): 54.2 nM and 31.7 nM
- TGI (HS 578T breast): 368 nM and 335 nM
- GI50 (MOLT-4 leukemia): 42 nM
- TGI (MOLT-4 leukemia): 1140 nM and 612 nM
- GI50 (RPMI-8226 leukemia): 136 nM and 123 nM
- TGI (RPMI-8226 leukemia): 434 nM and 456 nM
- GI50 (IGROV1 ovarian): 84.7 nM and 20.8 nM
- TGI (IGROV1 ovarian): 321 nM and 212 nM
- GI50 (OVCAR-5 ovarian): 125 nM and 149 nM
- TGI (OVCAR-5 ovarian): 752 nM and 773 nM
- GI50 (DU-145 prostate): 125 nM and 60.9 nM
- TGI (DU-145 prostate): 2160 nM and 431 nM
- GI50 (OVCAR-8 ovarian): 107 nM and 65.2 nM
- TGI (OVCAR-8 ovarian): 645 nM and 495 nM
- GI50 (UACC-257 melanoma): 203 nM and 191 nM
- TGI (UACC-257 melanoma): 1420 nM and 614 nM
- GI50 (MALME-3M melanoma): 99.6 nM and 78 nM
- TGI (MALME-3M melanoma): 588 nM and 246 nM
- GI50 (SN12C renal): 24.1 nM and 21.5 nM
- TGI (SN12C renal): 804 nM and 549 nM
- GI50 (COLO 205 colon): 24.6 nM and 33.6 nM
- TGI (COLO 205 colon): 90.7 nM and 127 nM
- GI50 (PC-3 prostate): 108 nM and 114 nM
- TGI (PC-3 prostate): 5340 nM and 1160 nM
- GI50 (LOX IMVI melanoma): 55.5 nM and 24.8 nM
- TGI (LOX IMVI melanoma): 140 nM and 172 nM
- GI50 (OVCAR-3 ovarian): 135 nM and 70.3 nM
- TGI (OVCAR-3 ovarian): 752 nM and 300 nM
- GI50 (RXF 393 renal): 58.9 nM and 39.5 nM
- TGI (RXF 393 renal): 174 nM and 180 nM
- GI50 (UO-31 renal): 584 nM and 235 nM
- TGI (UO-31 renal): 3050 nM and 749 nM
- GI50 (HOP-92 NSCLC): 36.7 nM and 15.6 nM
- TGI (HOP-92 NSCLC): 175 nM and 69.4 nM
- GI50 (A498 renal): 161 nM and 214 nM
- TGI (A498 renal): 425 nM and 366 nM
- GI50 (A549 NSCLC): 84.1 nM and 74.8 nM
- TGI (A549 NSCLC): 459 nM and 671 nM
- GI50 (NCI-H226 lung): 67.5 nM
- TGI (NCI-H226 lung): 5790 nM
- GI50 (HOP-62 NSCLC): 59.9 nM and 43.3 nM
- TGI (HOP-62 NSCLC): 507 nM and 300 nM
- GI50 (TK-10 renal): 156 nM
- TGI (TK-10 renal): 759 nM
- GI50 (EKVX NSCLC): 98.8 nM and 102 nM
- TGI (EKVX NSCLC): 903 nM and 591 nM
- GI50 (CCRF-CEM leukemia): 20.5 nM
- GI50 (M14 melanoma): 66.4 nM and 49.4 nM
- TGI (M14 melanoma): 156 nM and 200 nM
- GI50 (SNB-75 CNS): 67.8 nM
- TGI (SNB-75 CNS): 198 nM and 22.4 nM
- GI50 (U251 CNS): 125 nM and 134 nM
- TGI (U251 CNS): 610 nM and 349 nM
- GI50 (SR leukemia): 35.5 nM
- TGI (SR leukemia): 506 nM and 351 nM
- GI50 (MCF7 breast): 41.5 nM
- TGI (MCF7 breast): 543 nM and 377 nM
- GI50 (K-562 leukemia): 5 nM
- TGI (K-562 leukemia): 741 nM and 108 nM
- GI50 (NCI-H460 lung): 62.7 nM and 33.9 nM
- TGI (NCI-H460 lung): 837 nM and 197 nM
- GI50 (SK-MEL-5 melanoma): 296 nM and 158 nM
- TGI (SK-MEL-5 melanoma): 1030 nM and 312 nM
- GI50 (BT-549 breast): 120 nM and 275 nM
- TGI (BT-549 breast): 770 nM and 860 nM
- GI50 (HL-60(TB) leukemia): 139 nM and 43.2 nM
- TGI (HL-60(TB) leukemia): 384 nM and 336 nM
- GI50 (NCI-H522 lung): 42.3 nM and 20.2 nM
- TGI (NCI-H522 lung): 116 nM and 137 nM
- GI50 (SF-539 CNS): 17.6 nM and 17.5 nM
- TGI (SF-539 CNS): 83.2 nM and 112 nM
- GI50 (SF-268 CNS): 74.3 nM and 42.9 nM
- TGI (SF-268 CNS): 930 nM and 293 nM
- GI50 (UACC-62 melanoma): 120 nM and 145 nM
- TGI (UACC-62 melanoma): 685 nM and 323 nM
- GI50 (SK-MEL-2 melanoma): 95.1 nM and 111 nM
- TGI (SK-MEL-2 melanoma): 197 nM and 246 nM
- GI50 (NCI-H23 lung): 114 nM
- TGI (NCI-H23 lung): 529 nM
- GI50 (HCT-116 colon): 71.6 nM and 18.3 nM
- TGI (HCT-116 colon): 265 nM and 455 nM
- GI50 (MDA-MB-435): 119 nM and 63 nM
- TGI (MDA-MB-435): 761 nM and 268 nM
- GI50 (SF-295 CNS): 63.2 nM and 208 nM
- TGI (SF-295 CNS): 3810 nM and 812 nM
- GI50 (HT29 colon): 115 nM and 70.4 nM
- TGI (HT29 colon): 506 nM and 501 nM
- GI50 (MDA-MB-231 breast): 48.2 nM and 19.6 nM
- TGI (MDA-MB-231 breast): 219 nM and 241 nM
- GI50 (ACHN renal): 161 nM and 155 nM
- TGI (ACHN renal): 736 nM and 965 nM
- GI50 (SK-MEL-28 melanoma): 179 nM and 155 nM
- TGI (SK-MEL-28 melanoma): 986 nM and 344 nM
